The record followed here is US20230026696A1, “TRPV4 RECEPTOR LIGANDS” (UNIVERSITY OF UTAH RESEARCH FOUNDATION, priority 2019, published 2023).

Structures can show the parent of a compound that is named as a salt.

The target in this experiment is T1, human TRPV4 (Homo sapiens, UniProt Q9HBA0).
T1 construct: expressed in transfected cells
T1 sequence (Q9HBA0 whole entry): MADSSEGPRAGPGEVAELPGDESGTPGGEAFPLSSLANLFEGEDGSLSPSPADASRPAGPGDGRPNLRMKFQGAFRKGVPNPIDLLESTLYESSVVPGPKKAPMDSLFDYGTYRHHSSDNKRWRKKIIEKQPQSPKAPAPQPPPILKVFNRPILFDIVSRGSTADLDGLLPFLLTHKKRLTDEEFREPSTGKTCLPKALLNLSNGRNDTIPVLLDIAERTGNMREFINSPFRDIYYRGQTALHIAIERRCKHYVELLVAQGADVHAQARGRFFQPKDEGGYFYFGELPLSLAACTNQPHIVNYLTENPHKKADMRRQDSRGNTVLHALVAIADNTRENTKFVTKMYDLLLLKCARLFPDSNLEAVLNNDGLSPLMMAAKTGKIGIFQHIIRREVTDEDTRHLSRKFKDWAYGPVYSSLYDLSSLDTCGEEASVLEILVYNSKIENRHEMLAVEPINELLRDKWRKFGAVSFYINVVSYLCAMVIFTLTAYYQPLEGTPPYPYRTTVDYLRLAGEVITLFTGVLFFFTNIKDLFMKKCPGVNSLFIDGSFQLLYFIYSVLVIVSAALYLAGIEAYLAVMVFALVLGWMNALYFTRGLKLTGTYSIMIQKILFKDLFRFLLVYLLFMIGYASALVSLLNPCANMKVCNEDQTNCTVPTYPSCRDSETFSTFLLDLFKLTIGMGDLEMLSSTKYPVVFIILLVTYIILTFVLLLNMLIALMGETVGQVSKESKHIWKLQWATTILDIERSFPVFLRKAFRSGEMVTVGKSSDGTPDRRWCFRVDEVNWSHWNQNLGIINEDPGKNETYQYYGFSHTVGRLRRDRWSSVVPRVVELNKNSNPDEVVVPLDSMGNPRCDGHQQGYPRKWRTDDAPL
Nature of the experiment: Fluorometric cell-based Ca2+ flux assay, HEK-293 cells stably overexpressing human TRPV4. The conditions noted are these: HEK-293 stably overexpressing human TRPV4; agonist GSK1016790A 30 nM. As for the experimental part: Fluorometric cell-based Ca^2+ flux assays were performed to assess TRPV4 antagonist activity and determine potency (IC50 values) in human embryonic kidney-293 cells (HEK-293) that stably overexpress human TRPV4. The assays were performed according to methods described in: Deering-Rice, C. E., Johansen, M. E., Roberts, J. K., Thomas, K. C., Romero, E. G., Lee, J., Yost, G. S., Veranth, J. M., and Reilly, C. A. (2012), Mol. Pharmacol. 81(3), 411-419; Shapiro, D., Deering-Rice, C. E., Romero, E. G., Hughen, R. W., Light, A. R., Veranth, J. M., and Reilly, C. A. (2013), Chem Res. Toxicol., 26, 750-758; and Deering-Rice, C. E., Mitchell, V. K., Romero, E. G., Abdel Aziz, M. H., and Reilly, C. A. (2014), Pharmacol. Res. & Perspectives. 2(5), 1-10.
The HEK-293 cells stably overexpressing human TRPV4 were grown to confluence in 2% (w/v) gelatin-coated 96-well plates in DMEM:F12 media supplemented with 5% fetal bovine serum, 1× penicillin/streptomycin (Invitrogen) and Geneticin (300 μg/mL).
The HEK-293 cells were prepared for assay by replacing the growth media with a 1:1 solution of LHC-9 and Fluo 4-Direct (Invitrogen) reagent containing Fluo 4-AM, pluronic F-127, probenecid, and a proprietary quencher dye. The cells were then incubated at 37° C. for 1 h in a cell culture incubator. The cells were subsequently washed by replacing the loading solution with LHC-9 containing 1 mM water-soluble probenecid (Invitrogen), 750 μM Trypan Red (ATT Bioquest), and a test compound (at various concentrations). The cells were incubated for an additional 30 minutes at 37° C. to allow for Fluo 4-AM cleavage and activation, as well as equilibration to both the test compounds and Fluo 4.
An agonist treatment solution (90 nM GSK1016790A, a potent activator of TRPV4) was prepared in LHC9 at 3× concentration and 25 μL was added to 50 μL of media on the cells in 96 well plates, providing a final concentration of 30 nM. Changes in cellular fluorescence were monitored with a BMG Labtech NOVOStar fluorescence plate reader for 1 minute at 37° C. Data were quantified as the maximum rate of change in fluorescence intensity (max ΔF/s), corrected for media only treatment (negative control), and represented as the percentage of response relative to the no antagonist control. A minimum of three replicates were used for each treatment condition, with a minimum of 8 concentrations to derive the IC50 values reported for each antagonist. The IC50 values for each antagonist, which are shown in Table 4 below, were calculated according to methods described in the assays were performed according to methods described in: Deering-Rice, C. E., Johansen, M. E., Roberts, J. K., Thomas, K. C., Romero, E. G., Lee, J., Yost, G. S., Veranth, J. M., and Reilly, C. A. (2012), Mol. Pharmacol. 81(3), 411-419; Shapiro, D., Deering-Rice, C. E., Romero, E. G., Hughen, R. W., Light, A. R., Veranth, J. M., and Reilly, C. A. (2013), Chem Res. Toxicol., 26, 750-758; and Deering-Rice, C. E., Mitchell, V. K., Romero, E. G., Abdel Aziz, M. H., and Reilly, C. A. (2014), Pharmacol. Res. & Perspectives. 2(5), 1-10.
`C[C@H](O)CNCC1(COc2ccc(C#N)c(F)c2)CN(S(=O)(=O)c2ccccc2C#N)C1` [Compound 117, (S)-4-((1-((2-Cyanophenyl)sulfonyl)-3-(((2-hydroxypropyl)amino)methyl)azetidin-3-yl)methoxy)-2-fluorobenzonitrile] gave an IC50 of 1.6 nM.

In turn, `COc1ccc(S(=O)(=O)N2CC(CO)(COc3ccc(C#N)c(F)c3)C2)c(C#N)c1` [Compound 106, 4-((1-((2-Cyano-4-methoxyphenyl)sulfonyl)-3-(hydroxymethyl)azetidin-3-yl)methoxy)-2-fluorobenzonitrile] had a 50% inhibitory concentration (IC50) of 145 nM.

Turning to `CC(C)(C)OC(=O)NC1(COc2ccc(C#N)c(F)c2)CN(S(=O)(=O)c2ccc(Cl)cc2Cl)C1` [Compound 51, tert-Butyl (3-((4-cyano-3-fluorophenoxy)methyl)-1-((2,4-dichlorophenyl)sulfonyl)azetidin-3-yl)carbamate], the IC50 came out at 3350 nM.

Compound `NC(=O)c1ccc(OCC2(CO)CN(S(=O)(=O)c3ccc(Cl)cc3Cl)C2)cc1` [Compound 93, 4-((1-((2,4-Dichlorophenyl)sulfonyl)-3-(hydroxymethyl)azetidin-3-yl)methoxy)benzamide] registered an IC50 of roughly 5000 nM.

In the case of `N#Cc1ccc(OCC2(CN[C@H]3CC[C@@H](O)CC3)CN(S(=O)(=O)c3ccc(Cl)cc3Cl)C2)cc1F` [Compound 39, 4-((1-((2,4-Dichlorophenyl)sulfonyl)-3-((((cis)-4-hydroxycyclohexyl)amino)methyl)azetidin-3-yl)methoxy)-2-fluorobenzonitrile hydrochloride], the IC50 is 1.3 nM.

With `CC(=O)NCC1(COc2ccc(C#N)c(F)c2)CN(S(=O)(=O)c2ccc(Cl)cc2Cl)C1` [Compound 45, N-((3-((4-Cyano-3-fluorophenoxy)methyl)-1-((2,4-dichlorophenyl)sulfonyl)azetidin-3-yl)methyl)acetamide], the concentration for half-maximal inhibition (IC50) was 3000 nM.

`CC(O)CCNCC1(COc2ccc(C#N)c(F)c2)CN(S(=O)(=O)c2ccc(Cl)cc2Cl)C1` (centres unmarked) [Compound 35, 4-((1-((2,4-dichlorophenyl)sulfonyl)-3-(((3-hydroxybutyl)amino)methyl)azetidin-3-yl)methoxy)-2-fluorobenzonitrile hydrochloride] had a half-inhibitory concentration (IC50) of 0.7 nM.

Regarding `CCOC(=O)C1(COc2ccc(C#N)c(F)c2)CN(S(=O)(=O)c2ccc(Cl)cc2Cl)C1` [Compound 7, Ethyl 3-((4-cyano-3-fluorophenoxy)methyl)-1-((2,4-dichlorophenyl)sulfonyl)azetidine-3-carboxylate], the IC50 came out at 5000 nM.

`N#Cc1ccc(OCC2(CO)CN(S(=O)(=O)c3ccc(F)cc3C#N)C2)cc1F` [Compound 104, 4-((1-((2-Cyano-4-fluorophenyl)sulfonyl)-3-(hydroxymethyl)azetidin-3-yl)methoxy)-2-fluorobenzonitrile] had an IC50 of 29.3 nM.

The compound `N#Cc1ccc(OCC2(NS(=O)(=O)CCN)CN(S(=O)(=O)c3ccc(Cl)cc3Cl)C2)cc1F` [Compound 57, 2-Amino-N-(3-((4-cyano-3-fluorophenoxy)methyl)-1-((2,4-dichlorophenyl)sulfonyl)azetidin-3-yl)ethane-1-sulfonamide hydrochloride] showed a 50% inhibitory concentration (IC50) of 53 nM.

In turn, `N#Cc1ccc(OCC2(CN[C@H]3CC[C@H](O)CC3)CN(S(=O)(=O)c3ccc(Cl)cc3Cl)C2)cc1F` [Compound 41, 4-((1-((2,4-Dichlorophenyl)sulfonyl)-3-((((trans)-4-hydroxycyclohexyl)amino)methyl)azetidin-3-yl)methoxy)-2-fluorobenzonitrile hydrochloride] returned a concentration for half-maximal inhibition (IC50) of 0.3 nM.

With `Cc1cc(OCC2(CO)CN(S(=O)(=O)c3ccc(Cl)cc3Cl)C2)ccn1` [Compound 95, (1-((2,4-Dichlorophenyl)sulfonyl)-3-(((2-methylpyridin-4-yl)oxy)methyl)azetidin-3-yl)methanol], the IC50 was roughly 3000 nM.

In turn, `N#Cc1ccc(NCC2(CO)CN(S(=O)(=O)c3ccc(Cl)cc3Cl)C2)cc1F` [Compound 101, 4-(((1-((2,4-dichlorophenyl)sulfonyl)-3-(hydroxymethyl)azetidin-3-yl)methyl)amino)-2-fluorobenzonitrile] came in with an IC50 of 136 nM.

With `COCC1(COc2ccc(C#N)c(F)c2)CN(S(=O)(=O)c2ccc(Cl)cc2Cl)C1` [Compound 13, 4-((1-((2,4-Dichlorophenyl)sulfonyl)-3-(methoxymethyl)azetidin-3-yl)methoxy)-fluorobenzonitrile], the IC50 was found to be 62 nM.

The compound `N#Cc1cccc(OCC2(CO)CN(S(=O)(=O)c3ccc(Cl)cc3Cl)C2)c1` [Compound 89, 3-((1-((2,4-Dichlorophenyl)sulfonyl)-3-(hydroxymethyl)azetidin-3-yl)methoxy)benzonitrile] came in with an IC50 of 1000 to 3000 nM.

The compound `N#Cc1ccc(OCC2(CNS(=O)(=O)CCN)CN(S(=O)(=O)c3ccc(Cl)cc3Cl)C2)cc1F` [Compound 49, 2-Amino-N-((3-((4-cyano-3-fluorophenoxy)methyl)-1-((2,4-dichlorophenyl)sulfonyl)azetidin-3-yl)methyl)ethane-1-sulfonamide] returned a concentration for half-maximal inhibition (IC50) of 110 nM.

Compound `CN(C)C1(COc2ccc(C#N)c(F)c2)CN(S(=O)(=O)c2ccc(Cl)cc2Cl)C1` [Compound 54, 4-((1-((2,4-Dichlorophenyl)sulfonyl)-3-(dimethylamino)azetidin-3-yl)methoxy)-2-fluorobenzonitrile] registered an IC50 of 1240 nM.

In the case of `N#Cc1ccc(OCC2(CNCC3CCOC3)CN(S(=O)(=O)c3ccc(Cl)cc3Cl)C2)cc1F` (centres unmarked) [Compound 23, 4-((1-((2,4-Dichlorophenyl)sulfonyl)-3-((((tetrahydrofuran-3-yl)methyl)amino)methyl)azetidin-3-yl)methoxy)-2-fluorobenzonitrile hydrochloride], the IC50 was found to be 4.1 nM.

Consider `N#Cc1ccc(OCC2(NC(=O)CO)CN(S(=O)(=O)c3ccc(Cl)cc3Cl)C2)cc1F` [Compound 56, N-(3-((4-Cyano-3-fluorophenoxy)methyl)-1-((2,4-dichlorophenyl)sulfonyl)azetidin-3-yl)-2-hydroxyacetamide], for which the half-maximal inhibitory concentration (IC50) was found to be 100 nM.

`Cc1cc(Cl)ccc1S(=O)(=O)N1CC(CO)(COc2ccc(C#N)c(F)c2)C1` [Compound 74, 4-((1-((4-Chloro-2-methylphenyl)sulfonyl)-3-(hydroxymethyl)azetidin-3-yl)methoxy)-2-fluorobenzonitrile] gave a half-inhibitory concentration (IC50) of 520 nM.

For `C[C@H](O)CNCC1(COc2ccc(C#N)c(F)c2)CN(S(=O)(=O)c2ccc(Cl)cc2Cl)C1` [Compound 31, (S)-4-((1-((2,4-dichlorophenyl)sulfonyl)-3-(((2-hydroxypropyl)amino)methyl)azetidin-3-yl)methoxy)-2-fluorobenzonitrile hydrochloride], the IC50 was 0.4 nM.

For the compound `N#Cc1ccc(OCC2(CO)CN(S(=O)(=O)c3ccc(Cl)cc3F)C2)cc1F` [Compound 78, 4-((1-((4-Chloro-2-fluorophenyl)sulfonyl)-3-(hydroxymethyl)azetidin-3-yl)methoxy)-2-fluorobenzonitrile], the IC50 lay in the range of 100 to 500 nM.

The compound `N#Cc1ccc(OCC2(CO)CN(S(=O)(=O)c3ccc(C(F)(F)F)nc3)C2)cc1F` [Compound 64, 2-Fluoro-4-((3-(hydroxymethyl)-1-((6-(trifluoromethyl)pyridin-3-yl)sulfonyl)azetidin-3-yl)methoxy)benzonitrile] registered a 50% inhibitory concentration (IC50) of 5000 nM.
